Entries after “also recorded” stand apart in the source; their conditions may differ. Blank lines part the entries; values can stand above or below the compound they belong to. Square brackets hold non-standard residues; d marks the D form. Peptide text beside a SMILES is read from it. Nle = CCCC[C@H](N)C(=O)O
Assays:
[1] = biological target: T1, hPTHR (Homo sapiens, UniProt Q03431); assay: cAMP dose-response in HKRK-B64 cells; format: cell-based; design: expressed in transfected cells
T1 sequence (Q03431 27-593): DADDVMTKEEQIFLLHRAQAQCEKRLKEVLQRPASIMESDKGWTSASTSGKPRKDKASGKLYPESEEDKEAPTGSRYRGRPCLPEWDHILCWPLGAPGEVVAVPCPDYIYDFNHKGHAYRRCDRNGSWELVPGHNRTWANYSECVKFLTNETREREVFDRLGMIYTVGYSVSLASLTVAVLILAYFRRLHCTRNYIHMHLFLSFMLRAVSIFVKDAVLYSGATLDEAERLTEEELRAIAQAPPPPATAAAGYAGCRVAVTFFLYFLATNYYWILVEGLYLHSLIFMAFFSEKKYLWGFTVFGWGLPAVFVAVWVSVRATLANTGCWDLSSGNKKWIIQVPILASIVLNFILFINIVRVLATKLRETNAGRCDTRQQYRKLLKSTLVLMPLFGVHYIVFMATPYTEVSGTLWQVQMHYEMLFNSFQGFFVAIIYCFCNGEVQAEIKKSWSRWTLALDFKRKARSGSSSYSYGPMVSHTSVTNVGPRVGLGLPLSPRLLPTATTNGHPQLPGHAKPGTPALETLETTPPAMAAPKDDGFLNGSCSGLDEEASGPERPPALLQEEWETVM

[2] = biological target: T2, human PTHR, G protein-uncoupled conformation (R^0) (Homo sapiens, UniProt Q03431); assay: Competition binding to R0 conformation of hPTHR (COS-7 membranes, GTPγS, 125I-PTH(1-34) tracer); conditions: Table 5, fold weaker affinity for R0 than RG
T2 construct: expressed in transfected cells; host or cells: COS-7, transient (Fugene-6)
T2 sequence (Q03431 27-593): T1 sequence (Q03431 27-593)
Method in brief: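 Membranes from hPTHR-transfected COS-7 cells (20-100 μg/mL protein) incubated 90 min with radioligand (~150,000 cpm/ml) and unlabeled ligands, then filtered. Specific binding expressed as % of binding without competitor.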

[3] = biological target: T1, hPTHR; assay: Inositol phosphate production in COS-7/hPTHR cells; format: cell-based; design: expressed in transfected cells; host or cells: COS-7, transient (Fugene-6); conditions: basal 330 ± 8 cpm/well not subtracted
[4] = biological target: T1, hPTHR; assay: Delayed cAMP response after ligand wash-out in HKRK-B64 cells; format: cell-based; design: expressed in transfected cells; conditions: HKRK-B64, 60 minutes after wash-out; read-out: cAMP response after wash-out, % of maximum response
[5] = Bone structural parameters after two-week daily treatment in mice (Piximus, microCT); format: in vivo
Method: FIG. 31 is a set of images showing the effects of two-week daily treatment of R^0 and RG ligands on trabecular and cortical bone structure in mice. Mice (C57BL/6, males, 3 months) were treated (i.v.) with either vehicle, rPTH(1-34) (SEQ ID NO:130), M-PTH(1-34) (SEQ ID NO:12), or E^18,A^22,L^25,K^26 (EALK)PTHrP(1-30) (SEQ ID NO:90) (5 nmol/kg; n=7 group), daily for 14 days, and femurs were analyzed by μCT.
As described above, mice were treated intravenously) with either vehicle, rPTH(1-34), M-PTH(1-34), or EALK-PTHrP(1-30) daily for 14 days.

[6] = biological target: T1, hPTHR; assay: Delayed cAMP response after ligand wash-out in HKRK-B7 cells; format: cell-based; design: expressed in transfected cells
[7] = Bone turnover markers (PINP, osteocalcin, CTX) in mice, daily treatment; format: in vivo; conditions: 5 nmol/kg i.v. daily, days 6 and 13
Method: FIGS. 30A-30F are graphs showing the effects of PTH analogs on plasma bone markers in mice. Mice (C57BL/6, males, 3 months) were intravenously injected daily with either vehicle, rPTH(1-34) (SEQ ID NO:130), M-PTH(1-34) (SEQ ID NO:12), or (EALK)-PTHrP(1-30) (SEQ ID NO:90) (5 nmol/kg; n=7 group) for 14 days. Markers of bone turnover (PINP, CTX and osteocalcin) were assessed by ELISA in blood at day 6 (FIGS. 30A, 30C, and 30E, respectively) and 13 (FIGS. 30B, 30D, and 30F, respectively).
A second set of experiments was performed in which mice received 5 nmol/kg intravenous daily treatment with rPTH(1-34), M-PTH(1-34), or EALK-PTHrP(1-30) for 14 days. Blood samples were taken at days 6 and 13, and markers of bone turnover (PINP, osteocalcin and CTX) were assessed by ELISA.

[8] = Serum and urinary calcium and phosphate in TPTX rats; format: in vivo; conditions: single i.v. 1.25 nmol/kg
Method: Five-week-old male Crl:CD(SD) rats were obtained from Charles River Laboratories Japan, Inc. (Kanagawa, Japan) and acclimated for 1 week under standard laboratory conditions at 20-26° C. and 35-75% humidity. The rats received free access to tap water and standard rodent chow (CE-2) containing 1.1% calcium, 1.0% phosphate and 250 IU/100 g of vitamin D3 (Clea Japan, Inc., Shizuoka, Japan).
Thyroparathyroidectomy (TPTX) was performed on six-week-old rats. TPTX rats were selected for use based on serum ionized calcium (iCa) levels (<1.0 mM) in samples taken from tail vein bleeding at 24 hours or […] after the operation using the electrode method. The TPTX rats were divided into six groups of five animals based on iCa levels at 48 hours after the operation. TPTX-vehicle group intravenously received the vehicle alone (10 mM acetic acid solution) at a dose of 1 ml/kg body weight administered to the tail vein.
Blood was obtained from the tail vein for detecting iCa at 1, 2, 4, 6, and 24 hours after each injection. Ionized calcium levels were determined by the electrode method using an autoanalyzer (M-634, Chiba Corning Diagnostics Co. Ltd., Tokyo, Japan).
We also studied the effects of the M-PTH(1-14)/PTHrP(15-36) hybrid peptide (SP-PTH) on serum and urinary calcium and phosphate.

[9] = Plasma phosphate in mice (20 nmol/kg); format: in vivo
Source text: (§1) To impair PLC signaling, we replaced alanine at position 1 of M-PTH(1-28) with tryptophan, in accordance with findings of Bisello and colleagues (J Biol Chem 277:38524-30, 2002) showing that such bulky substitutions at this position selectively impair PLC signaling.

[10] = test system: opossum kidney (OK) cell line; assay: Phosphate uptake inhibition in opossum kidney cells; format: cell-based; conditions: 10 minute exposure, 1×10^−7 M
[11] = test system: NaPi-IIa; assay: NaPi-IIa staining in renal PT cells of injected mice; conditions: mouse, in vivo
Source text: To help elucidate further the signaling mechanisms by which PTH ligands regulate renal phosphate transport, we developed a derivative of M-PTH(1-28) that is defective for PLC/PKC signaling, yet retains potent cAMP/PKA signaling activity. Such a peptide allows for study of the relative roles of the PKA and PKC signaling pathways in modulating the function and surface expression of the Pi transporters NaPi-IIa and NaPi-IIc in proximal tubule (PT) cells. The analog M-PTH(1-28) (M=Ala^1,Aib^3,Gln^10, Har^11,Trp^14,Arg^19), a potent agonist for cAMP and IP3 signaling pathways, induces, when injected into mice, prolonged hypophosphatemic and hypercalcemic effects.
as §1

[12] = test system: NaPi-IIc; assay: NaPi-IIc immunostaining in renal PT cells of injected mice; format: in vivo; conditions: interval 4 to 6 h
Source text: as §1

[13] = Piximus, mice, 5 nmol/kg i.v. daily 14 days

EC50 ([1]; 30 min, room temperature, IBMX): 2.7 nM | cAMP in HKRK-B64 cells Emax ([1]; basal 5.2 ± 0.9 pmole/well not subtracted): 59 ± 12 picomole/well | R0:RG [2]: 753 | R0:RG ([2]; listed as His^5-PTH(1-34)): 750 | IP in COS-7/hPTHR cells Emax [3]: 2,231 ± 229 cpm/well | Emax [4]: 34%
Structure (SMILES): CCCC[C@H](NC(=O)[C@H](CC(C)C)NC(=O)[C@H](CCC(N)=O)NC(=O)[C@H](Cc1c[nH]cn1)NC(=O)[C@H](CCC(=O)O)NC(=O)[C@H](CO)NC(=O)[C@@H](NC(=O)[C@H](C)N)C(C)C)C(=O)N[C@@H](Cc1c[nH]cn1)C(=O)N[C@@H](CC(N)=O)C(=O)N[C@@H](CC(C)C)C(=O)NCC(=O)N[C@@H](CCCCN)C(=O)N[C@@H](Cc1c[nH]cn1)C(=O)N[C@@H](CC(C)C)C(=O)N[C@@H](C)C(=O)N[C@@H](CO)C(=O)N[C@H](C(=O)N[C@@H](CCC(=O)O)C(=O)N[C@@H](CCCNC(=N)N)C(=O)N[C@@H](CCCC)C(=O)N[C@@H](CCC(N)=O)C(=O)N[C@@H](Cc1c[nH]c2ccccc12)C(=O)N[C@@H](CC(C)C)C(=O)N[C@@H](CCCNC(=N)N)C(=O)N[C@@H](CCCCN)C(=O)N[C@@H](CCCCN)C(=O)N[C@@H](CC(C)C)C(=O)N[C@@H](CCC(N)=O)C(=O)N[C@@H](CC(=O)O)C(=O)N[C@H](C(=O)N[C@@H](Cc1c[nH]cn1)C(=O)N[C@@H](CC(N)=O)C(=O)N[C@@H](Cc1ccc(O)cc1)C(N)=O)C(C)C)C(C)C [[His^5,Nle^8,21,Tyr^34]rPTH(1-34)NH2] (H-AVSEHQL[Nle]HNLGKHLASVER[Nle]QWLRKKLQDVHNY-NH2; N-terminus assumed)

R0:RG [2]: five | Emax [4]: 47%
Structure (SMILES): CC[C@H](C)[C@H](NC(=O)[C@H](CCC(=O)O)NC(=O)[C@H](CO)NC(=O)[C@@H](NC(=O)[C@H](C)N)C(C)C)C(=O)N[C@@H](CCC(N)=O)C(=O)N[C@@H](CC(C)C)C(=O)N[C@@H](CCSC)C(=O)N[C@@H](Cc1c[nH]cn1)C(=O)N[C@@H](CC(N)=O)C(=O)N[C@@H](CC(C)C)C(=O)NCC(=O)N[C@@H](CCCCN)C(=O)N[C@@H](Cc1c[nH]cn1)C(=O)N[C@@H](CC(C)C)C(=O)N[C@@H](C)C(=O)N[C@@H](CO)C(=O)N[C@H](C(=O)N[C@@H](CCC(=O)O)C(=O)N[C@@H](CCCNC(=N)N)C(=O)N[C@@H](CCSC)C(=O)N[C@@H](CCC(N)=O)C(=O)N[C@@H](Cc1c[nH]c2ccccc12)C(=O)N[C@@H](CC(C)C)C(=O)N[C@@H](CCCNC(=N)N)C(=O)N[C@@H](CCCCN)C(=O)N[C@@H](CCCCN)C(=O)N[C@@H](CC(C)C)C(=O)N[C@@H](CCC(N)=O)C(=O)N[C@@H](CC(=O)O)C(=O)N[C@H](C(=O)N[C@@H](Cc1c[nH]cn1)C(=O)N[C@@H](CC(N)=O)C(=O)N[C@@H](Cc1ccccc1)C(N)=O)C(C)C)C(C)C [PTH(1-34), reference compound]
Lumbar Spine BMD [5, 13]: 0.0464 ± 0.0002 g/cm^2 | Total Femur BMD [5, 13]: 0.0615 ± 0.0003 g/cm^2 | Conn-Dens. ([5]; microCT distal femur): 116 ± 8 1/mm^3 | Cort Th. ([5]; microCT distal femur): 229 ± 11 μm | Tb · N ([5]; microCT distal femur): 4.02 ± 0.14 1/mm | Tb · Th ([5]; microCT distal femur): 57.5 ± 1.4 μm | TbSp ([5]; microCT distal femur): 246 ± 10 μm | TrabecularBV/TV ([5]; microCT distal femur): 17.4 ± 1.2% | BA ([5]; microCT mid femur): 0.839 ± 0.032 mm^2 | BA/TA ([5]; microCT mid femur): 38.7 ± 0.7% | Cort Th. ([5]; microCT mid femur): 172 ± 5 μm | MA ([5]; microCT mid femur): 1.33 ± 0.02 mm^2 | TA ([5]; microCT mid femur): 2.17 ± 0.05 mm^2 | time course of cAMP responses after wash-out compared with other ligands, in words [6]: not different from those induced by PTHrP(1-36); also recorded: nearly identical to those produced by Ile^5-PTHrP(1-36) | effect on bone turnover markers, in words [7]: only minor effects on bone markers | serum calcium (sCa) and serum phosphorus (sPi), in words [8]: transiently increased serum calcium (sCa) and decreased serum phosphorus (sPi) levels at 1 hr, but not to the normal range | urinary calcium 0-6 hours, in words [8]: did not change | urinary phosphate 0-6 hours, in words [8]: did not change | time of maximal suppression of plasma phosphate [9]: 2 h | time of recovery of plasma phosphate to vehicle control levels [9]: 4 h | duration of phosphate uptake inhibition, in words [10]: much shorter duration of phosphate uptake inhibition | apical and cytoplasmic NaPi-IIa staining, in words [11]: returned to vehicle control levels at 6 h | NaPi-IIc immunostaining, in words [12]: unchanged
